What follows are compounds tested on CCRF-CEM (assay: Anticancer activity against human CCRF-CEM cells assessed as cell viability at 12.5 uM after 48 hrs by MTT assay). Settings: read-out: Activity.
Type: functional

SMILES | viability at 12.5 µM [%]
OC(CCn1nc2c(Br)c(Br)c(Br)c(Br)c2n1)c1cccc(Br)c1 (configuration not stated) | 118
C[C@@H](O)CCn1nc2c(Br)c(Br)c(Br)c(Br)c2n1 | 94
OC(CCn1nc2c(Br)c(Br)c(Br)c(Br)c2n1)c1ccccc1 (racemic) | 89

The compounds below were run on MCF7 (assay: Anticancer activity against human MCF7 cells assessed as cell viability at 50 uM after 24 hrs by MTT assay). Settings: MCF7, 24 h, read-out: Activity.
Type: functional

SMILES | viability at 50 µM [%]
OC(CCn1nc2c(Br)c(Br)c(Br)c(Br)c2n1)c1cccc(Br)c1 (configuration not stated) | 14
C[C@@H](O)CCn1nc2c(Br)c(Br)c(Br)c(Br)c2n1 | 102
OC(CCn1nc2c(Br)c(Br)c(Br)c(Br)c2n1)c1ccccc1 (racemic) | 28

The compounds below were run on MCF7 (assay: Anticancer activity against human MCF7 cells assessed as cell viability at 50 uM after 48 hrs by MTT assay). Settings: MCF7, 48 h, read-out: Activity.
Type: functional

SMILES | viability at 50 µM [%]
OC(CCn1nc2c(Br)c(Br)c(Br)c(Br)c2n1)c1cccc(Br)c1 (configuration not stated) | 11
C[C@@H](O)CCn1nc2c(Br)c(Br)c(Br)c(Br)c2n1 | 64
OC(CCn1nc2c(Br)c(Br)c(Br)c(Br)c2n1)c1ccccc1 (racemic) | 23

What follows are compounds tested against Casein kinase II subunit alpha (Homo sapiens) (UniProt P68400) (assay: Inhibition of human CK2alpha using RRRDDDSDDD peptide substrate at 20 uM by P81 filter-binding assay). Settings: not given.
Set-up: scale not given: the % may be the effect or the level left

Sequence of Casein kinase II subunit alpha (Homo sapiens) (P68400 whole entry, looked up): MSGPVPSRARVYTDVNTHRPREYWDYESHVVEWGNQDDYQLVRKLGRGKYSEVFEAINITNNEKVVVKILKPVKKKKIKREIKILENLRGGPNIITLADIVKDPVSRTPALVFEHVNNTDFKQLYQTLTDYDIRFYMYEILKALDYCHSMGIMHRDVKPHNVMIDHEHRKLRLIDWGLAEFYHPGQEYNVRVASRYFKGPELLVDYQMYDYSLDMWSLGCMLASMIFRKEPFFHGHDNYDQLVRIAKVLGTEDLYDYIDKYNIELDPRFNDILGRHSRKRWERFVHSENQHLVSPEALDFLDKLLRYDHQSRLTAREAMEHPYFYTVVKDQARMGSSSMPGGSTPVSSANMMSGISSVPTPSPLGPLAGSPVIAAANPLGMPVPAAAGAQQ

SMILES | Activity [%]
OC(CCn1nc2c(Br)c(Br)c(Br)c(Br)c2n1)c1cccc(Br)c1 (configuration not stated) | 96.6
OC(CCn1nc2c(Br)c(Br)c(Br)c(Br)c2n1)c1ccccc1 (racemic) | 93

Each compound was assayed on CCRF-CEM (assay: Anticancer activity against human CCRF-CEM cells assessed as cell viability at 12.5 uM after 24 hrs by MTT assay). Settings: read-out: Activity.
Type: functional

SMILES | viability at 12.5 µM [%]
OC(CCn1nc2c(Br)c(Br)c(Br)c(Br)c2n1)c1cccc(Br)c1 (configuration not stated) | 102
C[C@@H](O)CCn1nc2c(Br)c(Br)c(Br)c(Br)c2n1 | 88
OC(CCn1nc2c(Br)c(Br)c(Br)c(Br)c2n1)c1ccccc1 (racemic) | 122

The compounds below were run on CCRF-CEM (assay: Anticancer activity against human CCRF-CEM cells assessed as cell viability at 100 uM after 48 hrs by MTT assay). Settings: read-out: Activity.
Type: functional

SMILES | viability at 100 µM [%]
OC(CCn1nc2c(Br)c(Br)c(Br)c(Br)c2n1)c1cccc(Br)c1 (configuration not stated) | 0
C[C@@H](O)CCn1nc2c(Br)c(Br)c(Br)c(Br)c2n1 | 24
OC(CCn1nc2c(Br)c(Br)c(Br)c(Br)c2n1)c1ccccc1 (racemic) | 0

These compounds were tested on MCF7 (assay: Anticancer activity against human MCF7 cells assessed as cell viability at 12.5 uM after 24 hrs by MTT assay). Settings: MCF7, 24 h, read-out: Activity.
Type: functional

SMILES | viability at 12.5 µM [%]
OC(CCn1nc2c(Br)c(Br)c(Br)c(Br)c2n1)c1cccc(Br)c1 (configuration not stated) | 81
C[C@@H](O)CCn1nc2c(Br)c(Br)c(Br)c(Br)c2n1 | 109
OC(CCn1nc2c(Br)c(Br)c(Br)c(Br)c2n1)c1ccccc1 (racemic) | 115

Each compound was assayed against Casein kinase II subunit alpha (Homo sapiens) (UniProt P68400) (assay: Inhibition of human CK2alpha using RRRDDDSDDD peptide substrate at 200 uM by P81 filter-binding assay). Settings: not given.
Set-up: scale not given: the % may be the effect or the level left

SMILES | Activity [%]
OC(CCn1nc2c(Br)c(Br)c(Br)c(Br)c2n1)c1cccc(Br)c1 (configuration not stated) | 43.4
OC(CCn1nc2c(Br)c(Br)c(Br)c(Br)c2n1)c1ccccc1 (racemic) | 31.1

What follows are compounds tested on CCRF-CEM (assay: Anticancer activity against human CCRF-CEM cells assessed as cell viability at 25 uM after 48 hrs by MTT assay). Settings: read-out: Activity.
Type: functional

SMILES | viability at 25 µM [%]
OC(CCn1nc2c(Br)c(Br)c(Br)c(Br)c2n1)c1cccc(Br)c1 (configuration not stated) | 54
C[C@@H](O)CCn1nc2c(Br)c(Br)c(Br)c(Br)c2n1 | 71
OC(CCn1nc2c(Br)c(Br)c(Br)c(Br)c2n1)c1ccccc1 (racemic) | 84

The compounds below were run on CCRF-CEM (assay: Anticancer activity against human CCRF-CEM cells assessed as cell viability at 100 uM after 24 hrs by MTT assay). Settings: read-out: Activity.
Type: functional

SMILES | viability at 100 µM [%]
OC(CCn1nc2c(Br)c(Br)c(Br)c(Br)c2n1)c1cccc(Br)c1 (configuration not stated) | 0
C[C@@H](O)CCn1nc2c(Br)c(Br)c(Br)c(Br)c2n1 | 36
OC(CCn1nc2c(Br)c(Br)c(Br)c(Br)c2n1)c1ccccc1 (racemic) | 21

What follows are compounds tested on MCF7 (assay: Anticancer activity against human MCF7 cells assessed as cell viability at 12.5 uM after 48 hrs by MTT assay). Settings: MCF7, 48 h, read-out: Activity.
Type: functional

SMILES | viability at 12.5 µM [%]
OC(CCn1nc2c(Br)c(Br)c(Br)c(Br)c2n1)c1cccc(Br)c1 (configuration not stated) | 102
C[C@@H](O)CCn1nc2c(Br)c(Br)c(Br)c(Br)c2n1 | 86
OC(CCn1nc2c(Br)c(Br)c(Br)c(Br)c2n1)c1ccccc1 (racemic) | 113

These compounds were tested on MCF7 (assay: Anticancer activity against human MCF7 cells assessed as cell viability at 25 uM after 24 hrs by MTT assay). Settings: MCF7, 24 h, read-out: Activity.
Type: functional

SMILES | viability at 25 µM [%]
OC(CCn1nc2c(Br)c(Br)c(Br)c(Br)c2n1)c1cccc(Br)c1 (configuration not stated) | 52
C[C@@H](O)CCn1nc2c(Br)c(Br)c(Br)c(Br)c2n1 | 105
OC(CCn1nc2c(Br)c(Br)c(Br)c(Br)c2n1)c1ccccc1 (racemic) | 99

These compounds were tested on CCRF-CEM (assay: Anticancer activity against human CCRF-CEM cells assessed as cell viability at 50 uM after 48 hrs by MTT assay). Settings: read-out: Activity.
Type: functional

SMILES | viability at 50 µM [%]
OC(CCn1nc2c(Br)c(Br)c(Br)c(Br)c2n1)c1cccc(Br)c1 (configuration not stated) | 0
C[C@@H](O)CCn1nc2c(Br)c(Br)c(Br)c(Br)c2n1 | 23
OC(CCn1nc2c(Br)c(Br)c(Br)c(Br)c2n1)c1ccccc1 (racemic) | 0

What follows are compounds tested on MCF7 (assay: Anticancer activity against human MCF7 cells assessed as cell viability at 100 uM after 48 hrs by MTT assay). Settings: MCF7, 48 h, read-out: Activity.
Type: functional

SMILES | viability at 100 µM [%]
OC(CCn1nc2c(Br)c(Br)c(Br)c(Br)c2n1)c1cccc(Br)c1 (configuration not stated) | 0
C[C@@H](O)CCn1nc2c(Br)c(Br)c(Br)c(Br)c2n1 | 0
OC(CCn1nc2c(Br)c(Br)c(Br)c(Br)c2n1)c1ccccc1 (racemic) | 0

What follows are compounds tested on MCF7 (assay: Anticancer activity against human MCF7 cells assessed as cell viability at 100 uM after 24 hrs by MTT assay). Settings: MCF7, 24 h, read-out: Activity.
Type: functional

SMILES | viability at 100 µM [%]
OC(CCn1nc2c(Br)c(Br)c(Br)c(Br)c2n1)c1cccc(Br)c1 (configuration not stated) | 1
C[C@@H](O)CCn1nc2c(Br)c(Br)c(Br)c(Br)c2n1 | 18
OC(CCn1nc2c(Br)c(Br)c(Br)c(Br)c2n1)c1ccccc1 (racemic) | 13

Each compound was assayed on MCF7 (assay: Anticancer activity against human MCF7 cells assessed as cell viability at 25 uM after 48 hrs by MTT assay). Settings: MCF7, 48 h, read-out: Activity.
Type: functional

SMILES | viability at 25 µM [%]
OC(CCn1nc2c(Br)c(Br)c(Br)c(Br)c2n1)c1cccc(Br)c1 (configuration not stated) | 106
C[C@@H](O)CCn1nc2c(Br)c(Br)c(Br)c(Br)c2n1 | 77
OC(CCn1nc2c(Br)c(Br)c(Br)c(Br)c2n1)c1ccccc1 (racemic) | 105

The compounds below were run on CCRF-CEM (assay: Anticancer activity against human CCRF-CEM cells assessed as cell viability at 25 uM after 24 hrs by MTT assay). Settings: read-out: Activity.
Type: functional

SMILES | viability at 25 µM [%]
OC(CCn1nc2c(Br)c(Br)c(Br)c(Br)c2n1)c1cccc(Br)c1 (configuration not stated) | 123
C[C@@H](O)CCn1nc2c(Br)c(Br)c(Br)c(Br)c2n1 | 81
OC(CCn1nc2c(Br)c(Br)c(Br)c(Br)c2n1)c1ccccc1 (racemic) | 123

These compounds were tested on CCRF-CEM (assay: Anticancer activity against human CCRF-CEM cells assessed as cell viability at 50 uM after 24 hrs by MTT assay). Settings: read-out: Activity.
Type: functional

SMILES | viability at 50 µM [%]
OC(CCn1nc2c(Br)c(Br)c(Br)c(Br)c2n1)c1cccc(Br)c1 (configuration not stated) | 54
C[C@@H](O)CCn1nc2c(Br)c(Br)c(Br)c(Br)c2n1 | 69
OC(CCn1nc2c(Br)c(Br)c(Br)c(Br)c2n1)c1ccccc1 (racemic) | 66

Reference: ChEMBL document CHEMBL3351930, “Synthesis of novel chiral TBBt derivatives with hydroxyl moiety. Studies on inhibition of human protein kinase CK2α and cytotoxicity properties” (Eur J Med Chem, 2014)
